Values quoted from earlier work, collected in patent publication US10779561B2, “Resveratrol solubility” (AQUANOVA AG, priority 2016, dated 2020).

Key:
[1] = test system: NFκ-b; conditions: in-vitro conditions
[2] = test system: rats; conditions: several in-vivo studies in rats

Structure (SMILES): Oc1ccc(C=Cc2cc(O)cc(O)c2)cc1 [resveratrol]
- effect on nuclear translocation of NFκ-b [1]: inhibits the nuclear translocation of NFκ-b
- neuro-protective effect [2]: neuro-protective effect
